Source: paper PMC11507377, “Intricate Evolution of Multifunctional Lipoxygenase in Red Algae” (International Journal of Molecular Sciences, 2024)

What was measured:
PhLOX [1] = molecular target: T1, PhLOX (Pyropia haitanensis, UniProt J7JU42, F826L); settings: 100 μM ALA, 0.1 mg/mL enzyme, pH 8.0, 20 °C, 15 min
T1 construct: gene lox

PhLOX [2] = molecular target: T2, PhLOX (Pyropia haitanensis, UniProt J7JU42, F642V/F826L); settings: 100 μM ALA, 0.1 mg/mL enzyme, pH 8.0, 20 °C, 15 min
T2 construct: gene lox

SvLOX = molecular target: T3, SvLOX (Shewanella violacea, UniProt D4ZL63); assay: HPLC-MS and GC-MS of products; assay type: biochemical; settings: 100 μM ARA, 0.1 mg/mL enzyme, pH 8.0, 20 °C, 1 min (HPLC-MS) or 15 min (GC-MS)
T3 construct: gene SVI_2441; SRPBCC domain + LOX domain
T3 sequence (D4ZL63 1-839): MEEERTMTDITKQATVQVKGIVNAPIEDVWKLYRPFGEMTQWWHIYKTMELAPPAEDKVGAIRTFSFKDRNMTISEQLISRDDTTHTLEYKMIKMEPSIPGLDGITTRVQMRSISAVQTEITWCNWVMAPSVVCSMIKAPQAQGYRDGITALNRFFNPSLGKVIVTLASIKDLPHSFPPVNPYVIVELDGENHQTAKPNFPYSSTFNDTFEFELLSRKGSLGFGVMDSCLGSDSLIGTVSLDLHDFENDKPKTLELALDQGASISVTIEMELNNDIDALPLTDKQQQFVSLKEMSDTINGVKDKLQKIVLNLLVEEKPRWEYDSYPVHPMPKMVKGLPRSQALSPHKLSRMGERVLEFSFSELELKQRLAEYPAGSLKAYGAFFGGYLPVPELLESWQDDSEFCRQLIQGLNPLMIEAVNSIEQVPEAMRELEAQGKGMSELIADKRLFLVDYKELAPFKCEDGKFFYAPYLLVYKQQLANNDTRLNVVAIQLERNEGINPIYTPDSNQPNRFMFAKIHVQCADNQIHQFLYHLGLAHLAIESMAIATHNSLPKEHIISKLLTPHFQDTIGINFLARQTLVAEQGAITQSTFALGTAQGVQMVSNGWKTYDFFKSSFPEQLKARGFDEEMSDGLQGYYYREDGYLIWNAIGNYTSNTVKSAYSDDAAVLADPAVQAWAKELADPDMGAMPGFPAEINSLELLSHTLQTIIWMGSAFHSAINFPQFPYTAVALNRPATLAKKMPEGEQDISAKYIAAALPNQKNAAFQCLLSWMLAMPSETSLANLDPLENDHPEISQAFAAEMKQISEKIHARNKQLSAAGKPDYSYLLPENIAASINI

T1 sequence (J7JU42 entry or part of it F826L): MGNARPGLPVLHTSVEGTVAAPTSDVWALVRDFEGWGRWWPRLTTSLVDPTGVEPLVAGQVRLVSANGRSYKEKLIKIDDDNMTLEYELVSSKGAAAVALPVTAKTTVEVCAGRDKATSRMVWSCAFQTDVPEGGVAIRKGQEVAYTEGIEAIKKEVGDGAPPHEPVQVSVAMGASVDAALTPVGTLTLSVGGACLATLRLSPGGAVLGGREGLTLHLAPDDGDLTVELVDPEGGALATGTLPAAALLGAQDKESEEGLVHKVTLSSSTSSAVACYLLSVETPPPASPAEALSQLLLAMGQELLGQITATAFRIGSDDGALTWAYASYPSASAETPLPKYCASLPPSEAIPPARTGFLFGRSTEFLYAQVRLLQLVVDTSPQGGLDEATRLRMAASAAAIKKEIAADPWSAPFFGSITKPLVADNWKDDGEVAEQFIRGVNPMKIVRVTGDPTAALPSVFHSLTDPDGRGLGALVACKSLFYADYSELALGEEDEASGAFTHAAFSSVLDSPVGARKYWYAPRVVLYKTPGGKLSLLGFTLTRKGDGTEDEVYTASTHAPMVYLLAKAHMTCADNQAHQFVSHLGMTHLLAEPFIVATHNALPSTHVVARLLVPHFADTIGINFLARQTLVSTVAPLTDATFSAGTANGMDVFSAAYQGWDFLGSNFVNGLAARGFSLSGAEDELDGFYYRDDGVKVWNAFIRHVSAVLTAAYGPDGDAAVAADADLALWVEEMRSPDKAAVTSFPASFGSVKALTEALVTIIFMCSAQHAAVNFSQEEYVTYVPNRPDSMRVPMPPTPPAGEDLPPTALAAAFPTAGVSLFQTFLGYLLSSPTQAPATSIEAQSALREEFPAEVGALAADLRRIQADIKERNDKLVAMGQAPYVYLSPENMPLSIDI
T2 sequence (J7JU42 entry or part of it F642V/F826L): as the sequence (J7JU42 entry or part of it F826L) above, with F642V counted along it

Structure (SMILES) | HPLC-MS of products (PhLOX [1]) | HPLC-MS of products (PhLOX [2]) | HPLC-MS and GC-MS of products (SvLOX)
CC/C=C\C/C=C\C/C=C\CCCCCCCC(=O)O [α-linolenic acid] | (ALA) was incubated with the F826L mutant of PhLOX, much more 9-HpOTE was formed | When ALA was incubated with the F642V-F826L double mutant of PhLOX, 13-HpOTE was the dominating product | 
CCCCC/C=C\C/C=C\C/C=C\C/C=C\CCCC(=O)O [arachidonic acid] |  |  | the incubation of ARA with SvLOX gave 12-hydroperoxy/hydroxy eicosatetraenoic acids
